Reference: paper PMC4554599 (Bipolar disorders, 2014)

Key:
[1] = biological target: T1, acyl-CoA synthetase-4 (Acsl4) (Rattus norvegicus, UniProt O35547); assay type: biochemical
[2] = biological target: T1, acyl-CoA synthetase-4 (Acsl4); assay: Michaelis-Menten kinetics, […]AA to AA-CoA conversion; assay type: biochemical

T1 sequence (O35547 whole entry): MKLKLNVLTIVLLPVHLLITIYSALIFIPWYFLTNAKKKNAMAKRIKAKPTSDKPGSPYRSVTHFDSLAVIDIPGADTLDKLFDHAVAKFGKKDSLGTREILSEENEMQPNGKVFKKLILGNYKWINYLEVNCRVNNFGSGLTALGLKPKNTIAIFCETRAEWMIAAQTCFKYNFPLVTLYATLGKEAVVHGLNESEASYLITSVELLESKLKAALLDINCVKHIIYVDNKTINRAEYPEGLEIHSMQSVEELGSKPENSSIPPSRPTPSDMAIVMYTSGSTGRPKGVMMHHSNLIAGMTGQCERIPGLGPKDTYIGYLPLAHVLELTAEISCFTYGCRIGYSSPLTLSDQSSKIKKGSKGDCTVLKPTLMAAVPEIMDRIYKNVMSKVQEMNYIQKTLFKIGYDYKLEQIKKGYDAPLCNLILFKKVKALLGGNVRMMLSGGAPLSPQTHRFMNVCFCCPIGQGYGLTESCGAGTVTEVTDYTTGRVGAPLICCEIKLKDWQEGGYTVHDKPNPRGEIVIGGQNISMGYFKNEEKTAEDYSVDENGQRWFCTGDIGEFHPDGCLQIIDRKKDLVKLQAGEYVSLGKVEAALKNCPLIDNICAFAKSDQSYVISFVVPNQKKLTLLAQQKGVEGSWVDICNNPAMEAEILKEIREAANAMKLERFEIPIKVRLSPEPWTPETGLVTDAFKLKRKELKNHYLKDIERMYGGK

Row | SMILES | Ki [1] [mM] | Km [2] [µM]
1 | CCC(C)C(CC)C(N)=O (racemic) [VCD, 2-ethyl-3-methyl pentanamide] | 6.38 ± 0.63 | –
2 | CCCCC/C=C\C/C=C\C/C=C\C/C=C\CCCC(=O)O [AA, arachidonic acid] | – | 4.63 ± 0.67
